Like-named read-outs stand apart in the source and are kept apart here.
Key:
[1] = system: GRFc, BY4741, and CEN.PK 113-5D yeast strains; assay: Growth of wild type yeast strains in medium containing lactic acid at pH 3 with added ascorbic acid; conditions: 2xYNB medium, lactic acid 40 g/l, pH3
Protocol: Ascorbic acid was added to the medium at the concentrations shown.

[2] = system: S. cerevisiae strain NRRL Y-30696; assay: Growth and lactic acid production of lactic acid producing yeast with exogenous ascorbic acid; type: cell-based; conditions: minimal glucose medium, 2.78 g/L CaCO3, 0, 0.16, 0.3 or 0.6 g/L ascorbic acid
Protocol: S. cerevisiae strain NRRL Y-30696 was inoculated in minimal glucose medium and 2.78 g/L CaCO3 or minimal glucose medium with 2.78 g/L CaCO3 and 0.16, 0.3, or 0.6 g/L ascorbic acid. OD660 (open symbols) and lactic acid (closed symbols) were monitored with time. The pH dropped in each case to 2.5 at 67 hours.

YML007w yeast [3] = assay: Growth (OD660) of yap1-deleted yeast under H2O2 oxidative stress with ascorbic acid in the medium; type: cell-based, S. cerevisiae; conditions: 0.8 or 1.0 mM H2O2; ascorbic acid added at T=0 at 15 mg/L; minimal medium 2% glucose
Protocol: FIG. 3A. […] Ascorbic acid was added at T=0 at a final concentration of 15 mg/L. BY4742 (▴); YML007w (◯).
FIG. 3B. […] Ascorbic acid was added at T=0 at a final concentration of 15 mg/L. BY4742 (▴); YML007w (◯).

YML007w yeast [4] = system: YML007w yeast
Description: Yeast strains used were S. cerevisiae GRF18U (Brambilla, L. et al., 1999, FEMS Microb. Lett. 171, 133-140), S. cerevisiae GRFc (Brambilla et al. 1999 FEMS Microb. Lett. 171: 133-140), S. cerevisiae BY4742 (MATα; his3; leu2, lys2; ura3, EuroScarf Accession No. Y10000), S. cerevisiae YML007w (BY4742; MATα; his3; leu2, lys2; ura; YML007w::KanMX4 (the yap1 deleted strain) EuroScarf Accession No. Y10569); CEN.PK 113-5D (MATα ura3-52; cir+) (see, for example, VanDijken et al. (2000) Enzyme Microb. Technol. 26, 706-714); and BY4741 (MATα; his3; leu2; met 15; ura3, Euroscarf Accession No. Y00000), or strains derived from them through transformation with the different developed plasmids. All strains were cultivated in shake flasks in minimal medium (0.67% w/v YNB (Difco Laboratories, Detroit, Mich. #919-15), 2% w/v glucose or mannose, with addition of the appropriate amino acids or adenine or uracil, respectively, to 50 μL-^1) and/or the appropriate antibiotic (G418 or hygromicin to 500 mg/l and 400 mg/l, respectively) under standard conditions (shaking at 30° C.). The initial optical density at 660 nm was about 0.05 for ascorbic acid determination, and 0.1 for the kinetics of the recovery from oxidative stress.
The yeast strains were grown on mineral medium (2% glucose, 0.67% YNB) starting from an OD^660 of 0.1. […]

## O=C1O[C@H]([C@@H](O)CO)C(O)=C1O [ascorbic acid, L-ascorbic acid]
[1]
  dose dependence of the effect of ascorbic acid on growth: dose dependent
[1]; zero or increasing ascorbic acid
  effect on growth inhibition by lactic acid (OD660): negative effects of lactic acid on growth can be overcome
[2]
  lactic acid production: equivalent at each level
[2]; pH dropped to 2.5 at 67 hours
  growth as measured by OD660: increased with increasing ascorbic acid
YML007w yeast [3]
  growth sensitivity of YML007w yeast to H2O2 (OD660): can be rescued

## OO [hydrogen peroxide]
YML007w yeast [4]; 0.8 mM hydrogen peroxide in medium
  growth of YML007w yeast host: strongly delayed
YML007w yeast [4]; 1 mM hydrogen peroxide in medium
  growth of YML007w yeast host: completely impaired

Reference: patent US20070141687A1, “Increase in stress tolerance with ascorbic acid during fermentation” (priority 2005, published 2007)
